In brackets after ≈: the same amount, converted by molar mass.
How the values were obtained:
[1] = system: Pseudomonas aeruginosa (strain PA HP3); assay: Checkerboard assay with ibuprofen; format: cell-based; conditions: for MIC: Pseudomonas aeruginosa, read-out: MIC (with ibuprofen); for MIC (with ibuprofen): with 50 μg/mL of ibuprofen
PA HP3 = assay: 24 hour end point colony forming units (CFU) count study; format: cell-based, Pseudomonas aeruginosa; conditions: P<0.0001
Experimental: A 24 hour end point colony forming units (CFU) count study was performed. […] Increasing concentrations of aztreonam and ceftazidime were loaded horizontally into each well of two separate 96-well plates starting with zero at the top of the plate. […] The plates were set on a platform shaker at 100 rpm in a 37° C. warm room for 24 hours. After the 24-hour incubation, each well was diluted by taking 50 μl culture into 450 μl of MH broth. A 50 μl aliquot of each dilution was plated on blood agar. This serial dilution step was repeated seven times for each well to reach countable numbers of colonies on the blood agar plates.

[2] = system: Pseudomonas aeruginosa (strain PA HP3); assay: Minimum inhibitory concentration (MIC); format: cell-based; conditions: alone
Experimental: (§1) The final concentrations of aztreonam, ceftazidime and vancomycin were 0.06, 0.13, 0.25, 0.5, 1, 2, 4, 8, 16, 32, 64, and 128 μg/ml. The plates were incubated overnight at 37° C. […] Each triplicate was performed at least twice.

[3] = system: P. aeruginosa strain PA HP3; assay: Disc diffusion assay; format: cell-based, Pseudomonas aeruginosa; conditions: MH agar with 100 μg/mL ibuprofen vs MH agar control
Experimental: A method for disc diffusion assay includes the following: The activity of five antibiotics (amikacin, aztreonam, ceftazidime, colistin, and tobramycin) was assessed against three strains of Pseudomonas aeruginosa (PAM57-15, PAO1 and PA HP3) using a disc diffusion assay. A single colony of P. aeruginosa was picked and grown to an optical density at 650 nm (OD650) of 0.4. […] Discs containing known quantities of the five previously mentioned antibiotics were placed on the two types of agar plates and incubated for 18 hours. The diameters of the zones of inhibition were measured and compared between the MH and MH+IBU plates.

[4] = Helium pycnometry true density; format: physicochemical; conditions: N = 3
Experimental: Helium pycnometry: True densities were measured using an MVP-D160-E multipycnometer (Quantrachrome Instruments; FL, USA) equipped with the micro cell and adapter. Measurements were conducted in triplicates. Before pressure measurements, the multipycnometer was purged with helium gas according to the manufacturer's recommendations.
True densities were measured using a MVP-D160-E multipycnometer (Quantrachrome Instruments; FL, USA). For density measurements, the micro cell and the micro cell adapter were used, and samples weighed at least 0.1 g for the jet-milled powders depending on availability and at least 0.6 g for the unprocessed powders.

[5] = Particle size distribution by laser light diffraction; format: physicochemical
Experimental: The particle size distribution (PSD) D10, D50, and D90 values for each sample were defined as particle diameters at the 10th, 50th, and 90th percentile and the span value was calculated according to Equation 2: […]
PSD analysis by laser light diffraction: PSDs were determined using a Sympatec Helos equipped with a Cuvette module (System-Partikel-Technik GmbH, Clausthal-Zellerfeld, Germany). Data were analyzed using the Sympatec WINDOX software. For each measurement, per a previously optimized method, about 2 mg of powder was dispersed in 0.5 mL of 0.1% (w/v) sodium dodecyl sulfate in water and the sample was sonicated for 5 min. […] After the reference measurement, 50 μL aliquots of the sonicated suspension were added to the cell to achieve optical concentrations of between 10 to 20% and the total of six measurements were performed on each sample. Formulations immediately following air-jet milling (25IBU10.1, 25IBU10.2) and after 6 months (25IBU10.1**, 25IBU10.2**) stored at RT (IBU10.1), or at −80° C. (IBU10.2) were analyzed.
PSDs were determined using a Sympatec Helos equipped with a Cuvette module (System-Partikel-Technik GmbH, Clausthal-Zellerfeld, Germany). Data were analyzed using the Sympatec WINDOX software. For each measurement per a previously optimized method, about 2 mg of powder was dispersed in 0.5 mL of 0.1% (w/v) SLS in water and the sample was sonicated for 5 minutes. […] After the reference measurement, 50 μL aliquots of the sonicated suspension were added to the cell to achieve optical concentrations of between 10 to 20% and the total of six measurements were performed on each sample. Analyzed samples included: unprocessed IBU and IND as well as the milled samples from different sections of the jet mill including the tube after grinding chamber (bfC), the cyclone (C), the collection vessel adapter (D), the collection bag adapter (E), the collection vessel (G) and the collection bag (H) for each run. The span value was calculated according to Equation 2.
To estimate the overall D10, D50, and D90 values for the combined recovered fractions associated with each run, stacked bar charts were graphed and analyzed to determine the yield normalized cumulative PSDs. Each stacked bar corresponded to a particle size bin and its height corresponded to the volume density distributions' weighted averages by the yield for each segment of the jet mill. The D10, D50, and D90 values for the normalized cumulative PSDs were the particle sizes corresponding to the 10, 50, and 90% area of the stacked bar chart respectively.
Tween 20 and sodium lauryl sulfate (SLS) were purchased from Fisher Scientific (Fisher Scientific, Pittsburgh, PA, USA), and dH2O was used for preparing solutions. […] A reference measurement was done in 0.1% (v/v) Span 85 in light mineral oil. After a reference measurement, aliquots of […] of sonicated suspension were added to achieve optical concentrations from 10 to 20% for a total of six measurements.
Furthermore, D10, D50, and D90 values for each sample were defined as particle diameters at the 10th, 50th, and 90th percentile of the PSD. Span was calculated according to Equation 2. Normalized cumulative PSDs were composed of yield-normalized distributions, where they were depicted as stacked bar charts. D10, D50, and D90 values for normalized cumulative PSDs were calculated by approximating particle sizes associated with 10%, 50%, and 90% area of the stacked bar chart.

[6] = Karl-Fischer moisture analysis; format: physicochemical; conditions: N = 3
Experimental: Karl-Fischer moisture analysis was performed. The moisture content of the unprocessed and jet-milled powders were measured in triplicates using a Photovolt Aqua-test™ 2010a Moisture Analyser (a.k.a. The CSC Aquapal III, CSC Scientific Inc., Fairfax, VA, USA). Powder moisture contents were calculated by subtracting the moisture content in 1 mL of anhydrous methanol (Fisher Scientific, Pittsburgh, PA, USA) from the moisture content reading from 5 mg powder dissolved in 1 mL of anhydrous methanol.

[7] = Angle of repose (USP method); format: physicochemical; conditions: N = 3
Experimental: Angle of repose: Angles of repose were measured in triplicate according to the United States Pharmacopoeia (USP) method. Images of the powder mounds were taken using a digital camera and were analyzed using the ImageJ software (Wayne Rasband, Research Services Branch, National Institute of Mental Health, Bethesda, MD, USA). […]

[8] = Brunauer-Emmett-Teller specific surface area; format: physicochemical; conditions: for SSA: N = 3
Experimental: Brunauer-Emmett-Teller: Surface area (SA) was evaluated via a single-point BET method using a Monosorb® surface area analyzer (Quantrachrome Instruments; FL, USA) following 24 hour outgassing with helium at room temperature (RT) before each measurement in triplicate on a known powder mass (m). SSA was calculated using Equation 3: […]
Brunauer-Emmett-Teller (BET) specific surface area (SSA) measurements were taken. Surface area (SA) was evaluated via a single-point BET method using a Monosorb® surface area analyzer (Quantrachrome Instruments; FL, USA) following 24 hour outgassing with helium at room temperature before each measurement in triplicates. Samples masses (m) were at least 50 mg for the jet-milled powders depending on availability and 500 mg for the unprocessed samples. SSA was calculated according to the following formula: […]

[9] = Bulk and tapped density, compressibility index and Hausner ratio; format: physicochemical
Experimental: In this modified method, a 10 mL graduated cylinder fitted with a molded adapter substituted the 100 mL graduated cylinder in the tapped density tester. The compressibility index (CI) and Hausner ratio (HR) calculations were performed according to the following formulas: The tapped density (rT) calculations were performed using a tapped density tester (Agilent Technologies, Santa Clara, CA, USA) with a modified method from the USP for a small mass of powder. In this modified method, a 10 mL graduated cylinder fitted with a molded adapter substituted the 100 mL graduated cylinder for the calculations of the bulk density (rB) and the use in the tapped density tester. The compressibility index (CI) and the Hausner ratio (HR) calculations were performed according to the following formulas: […]

[10] = system: methicillin-resistant Staphylococcus aureus (strain MRSA 0646); assay: Checkerboard assay with ibuprofen
Experimental: A method for checkerboard assay includes the following: The bacteria were diluted in the standard MH broth to a concentration of 5×10^5 in 100 μL, which was added to each well of a 96-well plate. Aztreonam, ceftazidime and vancomycin solutions were prepared from 10 mg/mL stocks in MH broth. […] The plates were incubated and read as noted for the MIC assay. Again, each triplicate was performed at least twice.
Interaction are defined as synergistic if the FIC index is <1, additive if the FIC index is =1 and antagonistic if the FIC index is >1.

[11] = system: methicillin-resistant Staphylococcus aureus (strain MRSA 0646); assay: Minimum inhibitory concentration (MIC); format: cell-based
Experimental: as §1

[12] = collection bag from jet-milled DFNa, cyclone from jet-milled DF
[13] = normalized cumulative particle size distribution of jet-milled powder
[14] = collection bag fraction or stock, Table 8
[15] = fraction used for testing (IBU collection bag, IND cyclone) or unprocessed powder

**Q.** Which results are given for `C[C@H]1[C@H](NC(=O)/C(=N\OC(C)(C)C(=O)O)c2csc(N)n2)C(=O)N1S(=O)(=O)O` [Aztreonam, aztreonam]?
**A.** MIC [1]: 2 µg/mL; MIC (with ibuprofen) [1]: 2 (50) μg/mL; CFU counts (PA HP3; 1 μg/mL aztreonam with 50 or 100 μg/mL ibuprofen vs aztreonam alone): decreased significantly; MIC [2]: 4 µg/mL (≈ 9.19 µM); diameters of the zones of inhibition [3]: significantly increased

**Q.** Which results are given for `CC(C)(O/N=C(\C(=O)N[C@@H]1C(=O)N2C(C(=O)[O-])=C(C[n+]3ccccc3)CS[C@H]12)c1csc(N)n1)C(=O)O` [Ceftazidime, ceftazidime]?
**A.** MIC [1]: 4 µg/mL; MIC (with ibuprofen) [1]: 4 (50) μg/mL; CFU counts (PA HP3; 2 or 4 μg/mL ceftazidime with 50 or 100 μg/mL ibuprofen vs ceftazidime alone): decreased significantly; MIC [2]: 16 µg/mL (≈ 29.3 µM); diameters of the zones of inhibition [3]: significantly increased

**Q.** Which “ρ (true density)” value [4] does the source give for `O=C(O)Cc1ccccc1Nc1c(Cl)cccc1Cl` [DF, diclofenac] here?
**A.** 1.48 ± 0.01 g/mL

**Q.** What about the D10 [5, 12] of the same molecule?
**A.** 1.31 μm

**Q.** What about the D90 [5, 12] of the same molecule?
**A.** 4.73 μm

**Q.** And the Span [5, 12]?
**A.** 1.31

**Q.** And the D10 [5, 13]?
**A.** 1.16 μm

**Q.** What about the D90 [5, 13] of the same molecule?
**A.** 4.48 μm

**Q.** What about the Span [5, 13] of the same molecule?
**A.** 1.41

**Q.** What about the D10 ([5]; unprocessed) of the same molecule?
**A.** 2.00 μm

**Q.** And the D90 ([5]; unprocessed)?
**A.** 17.34 μm

**Q.** What about the Span ([5]; unprocessed) of the same molecule?
**A.** 2.20

**Q.** And the Moisture content [6]?
**A.** 0.78 ± 0.18%

**Q.** What about the “Angle of Repose” value [7] of the same molecule?
**A.** 34.5 ± 2.3 °

**Q.** What about the SSA [8] of the same molecule?
**A.** 1.73 ± 0.18 m^2/g

**Q.** What about the CI [9] of the same molecule?
**A.** 46.67

**Q.** And the HR [9]?
**A.** 1.88

**Q.** And the “ρT (tapped density)” value [9]?
**A.** 0.30 g/mL

**Q.** What about the “ρβ (bulk density)” value [9] of the same molecule?
**A.** 0.16 g/mL

**Q.** For `O=C(O)Cc1ccccc1Nc1c(Cl)cccc1Cl` [DFNa, diclofenac sodium], which “ρ (true density)” value [4] is on record?
**A.** 1.51 ± 0.00 g/mL

**Q.** What about the D10 [5, 12] of the same molecule?
**A.** 1.06 μm

**Q.** What about the D90 [5, 12] of the same molecule?
**A.** 5.52 μm

**Q.** What about the Span [5, 12] of the same molecule?
**A.** 1.64

**Q.** And the D10 [5, 13]?
**A.** 1.29 μm

**Q.** And the D90 [5, 13]?
**A.** 6.53 μm

**Q.** And the Span [5, 13]?
**A.** 1.61

**Q.** What about the D10 ([5]; unprocessed) of the same molecule?
**A.** 2.02 μm

**Q.** What about the D90 ([5]; unprocessed) of the same molecule?
**A.** 42.69 μm

**Q.** What about the Span ([5]; unprocessed) of the same molecule?
**A.** 2.08

**Q.** What about the Moisture content [6] of the same molecule?
**A.** 1.88 ± 0.20%

**Q.** What about the “Angle of Repose” value [7] of the same molecule?
**A.** 48.7 ± 5.5 °

**Q.** And the SSA [8]?
**A.** 1.37 ± 0.20 m^2/g

**Q.** What about the CI [9] of the same molecule?
**A.** 45.24

**Q.** What about the HR [9] of the same molecule?
**A.** 1.83

**Q.** And the “ρT (tapped density)” value [9]?
**A.** 0.69 g/mL

**Q.** What about the “ρβ (bulk density)” value [9] of the same molecule?
**A.** 0.38 g/mL

**Q.** Which results are given for `CN[C@H](CC(C)C)C(=O)N[C@H]1C(=O)N[C@@H](CC(N)=O)C(=O)N[C@H]2C(=O)N[C@H]3C(=O)N[C@H](C(=O)N[C@H](C(=O)O)c4cc(O)cc(O)c4-c4cc3ccc4O)[C@H](O)c3ccc(c(Cl)c3)Oc3cc2cc(c3O[C@@H]2O[C@H](CO)[C@@H](O)[C@H](O)[C@H]2O[C@H]2C[C@](C)(N)[C@H](O)[C@H](C)O2)Oc2ccc(cc2Cl)[C@H]1O` [Vancomycin, vancomycin]?
**A.** MIC ([10]; Staphylococcus aureus, MRSA, read-out: MIC (with ibuprofen)): 1 µg/mL; FIC index ([10]; combination with ibuprofen, <1 synergistic): < 1; MIC (with ibuprofen) ([10]; with 50 μg/mL of ibuprofen): 1 (50) μg/mL; MIC [11]: 2 µg/mL (≈ 1.38 µM)

**Q.** Which results are given for `COc1ccc2c(c1)c(CC(=O)O)c(C)n2C(=O)c1ccc(Cl)cc1` [unprocessed indomethacin, indomethacin]?
**A.** D50 [5, 14]: 26.3 μm; D90 [5, 14]: 64.8 μm; Span [5, 14]: 2.3; Span [5, 15]: 2.25; median size (d50) [5, 15]: 26.3 μm; surface area [8]: 0.435±0.039 m^2/g; Compressibility Index (CI) [9]: 44.7; Hausner Ratio (HR) [9]: 1.81; bulk density [9]: 0.321 g/mL; tap density [9]: 0.580 g/mL

— patent US12303594B2, “Antimicrobial and anti-inflammatory compositions” (The Texas A&M University System, priority 2015, dated 2025)
